Reference: patent US4410516A, “1-N(αHydroxy-ω-aminoalkanoyl) derivatives of 5,3',4'-trideoxy- or 5,3', 4'-trideoxy-6'-N- methyl- or 5, 3', 4',6"-tetradeoxykannamyci B and production thereof” (Zaidan Hojin Biseibutsu Kagaku Kenkyu Kai, priority 1981, dated 1983)
Converted amounts (≈) assume the structure as drawn. Like-named read-outs stand apart in the source and are kept apart here.

Experiments:
Escherichia coli JR255 = assay: Minimum inhibitory concentration, serial dilution on nutrient agar; format: cell-based; settings: JR255, nutrient agar, 37° C., 18 hours incubation, read-out: MIC
Escherichia coli K-12 R5 = assay: as above; format: cell-based; settings: K12R5, 18 h
[1] = system: Micrococcus flavus FDA 16; assay: as above; format: cell-based; settings: FDA16, nutrient agar, 37° C., 18 hours incubation, read-out: MIC
[2] = system: Bacillus cereus ATCC 10702; assay: as above; format: cell-based; settings: ATCC10702, nutrient agar, 37° C., 18 hours incubation, read-out: MIC
[3] = system: Escherichia coli K-12 LA 290 R56; assay: as above; format: cell-based; settings: K12LA290R56, 18 h
[4] = system: Staphylococcus aureus AP01; assay: as above; format: cell-based; settings: 37° C., 18 hours incubation
Providencia Pv 16 = assay: as above; format: cell-based; settings: PV16, 37° C., 18 hours incubation
[5] = system: Pseudomonas aeruginosa ROS134/PU21; assay: as above; format: cell-based; settings: ROS134/PU21, 18 h
[6] = system: Staphylococcus aureus 209P; assay: as above; format: cell-based; settings: 37° C., 18 hours incubation
Proteus vulgaris OX19 = assay: as above; format: cell-based; settings: 37° C., 18 hours incubation
Escherichia coli K-12 = assay: as above; format: cell-based; settings: K12, nutrient agar, 37° C., 18 hours incubation, read-out: MIC
Escherichia coli W677 = assay: as above; format: cell-based; settings: W677, nutrient agar, 37° C., 18 hours incubation, read-out: MIC
[7] = system: Pseudomonas aeruginosa H9; assay: as above; format: cell-based; settings: H9, nutrient agar, 37° C., 18 hours incubation, read-out: MIC
Escherichia coli NIHJ = assay: as above; format: cell-based; settings: nutrient agar, 37° C., 18 hours incubation, read-out: MIC
[8] = system: Klebsiella pneumoniae PCI 602; assay: as above; format: cell-based; settings: PCI602, nutrient agar, 37° C., 18 hours incubation, read-out: MIC
[9] = system: Mycobacterium smegmatis ATCC 607; assay: as above; format: cell-based; settings: Mycolicibacterium smegmatis
[10] = system: Salmonella enteritidis 1891; assay: as above; format: cell-based; settings: Salmonella enterica, nutrient agar, 37° C., 18 hours incubation, read-out: MIC
[11] = system: Shigella dysenteriae JS 11910; assay: as above; format: cell-based; settings: JS11910, 18 h
Serratia 4 = assay: as above; format: cell-based; settings: 37° C., 18 hours incubation
Salmonella typhi T-63 = assay: as above; format: cell-based; settings: Salmonella enterica, 18 h
Providencia 2991 = assay: as above; format: cell-based; settings: 37° C., 18 hours incubation
[12] = system: Escherichia coli K-12 LA 290 R55; assay: as above; format: cell-based; settings: K12LA290R55, 18 h
Serratia SOU = assay: as above; format: cell-based; settings: 37° C., 18 hours incubation
[13] = system: Pseudomonas aeruginosa TI-13; assay: as above; format: cell-based
[14] = system: Pseudomonas aeruginosa B-13; assay: as above; format: cell-based; settings: B13, 37° C., 18 hours incubation
[15] = system: Escherichia coli K-12 R 388; assay: as above; format: cell-based; settings: K12R388, 18 h
[16] = system: Pseudomonas aeruginosa No. 12; assay: as above; format: cell-based; settings: NO.12, nutrient agar, 37° C., 18 hours incubation, read-out: MIC
[17] = system: Escherichia coli K-12 LA 290 R64; assay: as above; format: cell-based; settings: K12LA290R64, 18 h
[18] = system: Klebsiella pneumoniae 22 #3038; assay: as above; format: cell-based; settings: nutrient agar, 37° C., 18 hours incubation, read-out: MIC
Bacillus anthracis = assay: microbe, parasite or virus in culture; format: cell-based; settings: 18 h
Sarcina lutea PCI 1001 = assay: Minimum inhibitory concentration, serial dilution on nutrient agar; format: cell-based; settings: Micrococcus luteus, PCI1001; nutrient agar, 37° C., 18 hours incubation; read-out: MIC
[19] = system: Staphylococcus epidermidis 109; assay: as above; format: cell-based
[20] = system: Escherichia coli K-12 ML 1629; assay: as above; format: cell-based; settings: K12ML1629, nutrient agar, 37° C., 18 hours incubation, read-out: MIC
Serratia marcescens = assay: as above; format: cell-based; settings: 37° C., 18 hours incubation
Proteus rettgeri GN311 = assay: as above; format: cell-based; settings: Providencia rettgeri, 37° C., 18 hours incubation
[21] = system: Pseudomonas aeruginosa PST1; assay: as above; format: cell-based; settings: PST1, nutrient agar, 37° C., 18 hours incubation, read-out: MIC
[22] = system: Pseudomonas aeruginosa 99; assay: as above; format: cell-based; settings: Pseudomonas aeruginosa, 99; nutrient agar, 37° C., 18 hours incubation; read-out: MIC
[23] = system: Pseudomonas aeruginosa GN315; assay: as above; format: cell-based; settings: GN315, nutrient agar, 37° C., 18 hours incubation, read-out: MIC
[24] = system: Pseudomonas aeruginosa A3; assay: as above; format: cell-based; settings: 37° C., 18 hours incubation
[25] = Acute toxicity by intravenous injection in mice; settings: mouse, in vivo
[26] = system: Escherichia coli K-12 ML 1410; assay: Minimum inhibitory concentration, serial dilution on nutrient agar; format: cell-based
[27] = system: Pseudomonas aeruginosa 21-75; assay: as above; format: cell-based; settings: 2175, 37° C., 18 hours incubation

SMILES: C[C@H]1O[C@H](O[C@@H]2C[C@H](O[C@H]3O[C@H](CN)CC[C@H]3N)[C@@H](N)C[C@H]2N)[C@H](O)[C@@H](N)[C@@H]1O [TetradeoxyKMB, 5,3',4',6"-tetradeoxykanamycin B]
- MIC (Escherichia coli JR255): 25 µg/mL (≈ 59.6 µM)
- MIC (Escherichia coli K-12 R5): > 100 µg/mL
- MIC [1]: 50 µg/mL (≈ 119 µM)
- MIC [2]: 3.13 µg/mL (≈ 7.46 µM)
- MIC [3]: 100 µg/mL (≈ 238 µM)
- MIC [4]: 6.25 µg/mL (≈ 14.9 µM)
- MIC (Providencia Pv 16): > 100 µg/mL
- MIC [5]: > 100 µg/mL
- MIC [6]: 3.13 µg/mL (≈ 7.46 µM)
- MIC (Proteus vulgaris OX19): 1.56 µg/mL (≈ 3.72 µM)
- MIC (Escherichia coli K-12): 25 µg/mL (≈ 59.6 µM)
- MIC (Escherichia coli W677): 6.25 µg/mL (≈ 14.9 µM)
- MIC [7]: 100 µg/mL (≈ 238 µM)
- MIC (Escherichia coli NIHJ): 6.25 µg/mL (≈ 14.9 µM)
- MIC [8]: 3.13 µg/mL (≈ 7.46 µM)
- MIC ([9]; ATCC607, nutrient agar, 37° C., 18 hours incubation, read-out: MIC): 0.78 µg/mL (≈ 1.86 µM)
- MIC [10]: 25 µg/mL (≈ 59.6 µM)
- MIC [11]: 12.5 µg/mL (≈ 29.8 µM)
- MIC (Serratia 4): 50 µg/mL (≈ 119 µM)
- MIC (Salmonella typhi T-63): 12.5 µg/mL (≈ 29.8 µM)
- MIC (Providencia 2991): > 100 µg/mL
- MIC [12]: > 100 µg/mL
- MIC (Serratia SOU): > 100 µg/mL
- MIC ([13]; TI13, 18 h): 12.5 µg/mL (≈ 29.8 µM)
- MIC [14]: 50 µg/mL (≈ 119 µM)
- MIC [15]: 3.13 µg/mL (≈ 7.46 µM)
- MIC [16]: 25 µg/mL (≈ 59.6 µM)
- MIC [17]: 100 µg/mL (≈ 238 µM)
- MIC [18]: 100 µg/mL (≈ 238 µM)
- MIC (Bacillus anthracis): 0.39 µg/mL (≈ 0.93 µM)
- MIC (Sarcina lutea PCI 1001): 50 µg/mL (≈ 119 µM)
- MIC ([19]; Staphylococcus epidermidis, 109, nutrient agar, 37° C., 18 hours incubation, read-out: MIC): 6.25 µg/mL (≈ 14.9 µM)
- MIC [20]: 6.25 µg/mL (≈ 14.9 µM)
- MIC (Serratia marcescens): 100 µg/mL (≈ 238 µM)
- MIC (Proteus rettgeri GN311): > 100 µg/mL
- MIC [21]: > 100 µg/mL
- MIC [22]: 25 µg/mL (≈ 59.6 µM)
- MIC [23]: > 100 µg/mL
- MIC [24]: 3.13 µg/mL (≈ 7.46 µM)
- LD50 [25]: 25 to 50 mg/kg
- MIC ([26]; K12ML1410, 18 h): 12.5 µg/mL (≈ 29.8 µM)
- MIC [27]: > 100 µg/mL

SMILES: CNC[C@@H]1CC[C@@H](N)[C@@H](O[C@H]2C[C@@H](O[C@H]3O[C@H](CO)[C@@H](O)[C@H](N)[C@H]3O)[C@H](N)C[C@@H]2N)O1 [TrideoxyMKMB, 5,3',4'-trideoxy-6'-N-methylkanamycin B]
- MIC (Escherichia coli JR255): 100 µg/mL (≈ 222 µM)
- MIC (Escherichia coli K-12 R5): 50 µg/mL (≈ 111 µM)
- MIC [1]: 100 µg/mL (≈ 222 µM)
- MIC [2]: 12.5 µg/mL (≈ 27.8 µM)
- MIC [3]: 25 µg/mL (≈ 55.6 µM)
- MIC [4]: 25 µg/mL (≈ 55.6 µM)
- MIC (Providencia Pv 16): > 100 µg/mL
- MIC [5]: > 100 µg/mL
- MIC [6]: 1.56 µg/mL (≈ 3.47 µM)
- MIC (Proteus vulgaris OX19): 3.13 µg/mL (≈ 6.96 µM)
- MIC (Escherichia coli K-12): 12.5 µg/mL (≈ 27.8 µM)
- MIC (Escherichia coli W677): 12.5 µg/mL (≈ 27.8 µM)
- MIC [7]: 25 µg/mL (≈ 55.6 µM)
- MIC (Escherichia coli NIHJ): 12.5 µg/mL (≈ 27.8 µM)
- MIC [8]: 12.5 µg/mL (≈ 27.8 µM)
- MIC ([9]; ATCC607, 18 h): 6.25 µg/mL (≈ 13.9 µM)
- MIC [10]: 25 µg/mL (≈ 55.6 µM)
- MIC [11]: 50 µg/mL (≈ 111 µM)
- MIC (Serratia 4): 50 µg/mL (≈ 111 µM)
- MIC (Salmonella typhi T-63): 6.25 µg/mL (≈ 13.9 µM)
- MIC (Providencia 2991): > 100 µg/mL
- MIC [12]: 100 µg/mL (≈ 222 µM)
- MIC (Serratia SOU): > 100 µg/mL
- MIC ([13]; TI13, nutrient agar, 37° C., 18 hours incubation, read-out: MIC): 12.5 µg/mL (≈ 27.8 µM)
- MIC [14]: 100 µg/mL (≈ 222 µM)
- MIC [15]: 12.5 µg/mL (≈ 27.8 µM)
- MIC [16]: 25 µg/mL (≈ 55.6 µM)
- MIC [17]: 25 µg/mL (≈ 55.6 µM)
- MIC [18]: 100 µg/mL (≈ 222 µM)
- MIC (Bacillus anthracis): 0.78 µg/mL (≈ 1.74 µM)
- MIC (Sarcina lutea PCI 1001): 25 µg/mL (≈ 55.6 µM)
- MIC ([19]; Staphylococcus epidermidis, 109, 18 h): 6.25 µg/mL (≈ 13.9 µM)
- MIC [20]: 25 µg/mL (≈ 55.6 µM)
- MIC (Serratia marcescens): 100 µg/mL (≈ 222 µM)
- MIC (Proteus rettgeri GN311): 100 µg/mL (≈ 222 µM)
- MIC [21]: > 100 µg/mL
- MIC [22]: 50 µg/mL (≈ 111 µM)
- MIC [23]: 25 µg/mL (≈ 55.6 µM)
- MIC [24]: 3.13 µg/mL (≈ 6.96 µM)
- LD50 [25]: 50 to 100 mg/kg
- MIC ([26]; K12ML1410, nutrient agar, 37° C., 18 hours incubation, read-out: MIC): 25 µg/mL (≈ 55.6 µM)
- MIC [27]: > 100 µg/mL
